{"source": "ChEMBL document CHEMBL1201862", "about": "“PubChem BioAssay data set” (2004)", "key": {"[1]": {"assay": "inhibitors of intracellular T. cruzi replication, confirmation, NIH3T3 host cells, beta-gal luminescence (AID 2044);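 note: luminescent beta-galactosidase reporter signal from transgenic T. cruzi replicating inside host cells; inhibitors lower the luminescence signal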", "type": "functional, cell-based"}, "[2]": {"assay": "cytotoxicity toward NIH3T3 fibroblasts, dose response, counter-screen, cell-based, ATP luminescence, mouse fibroblasts (AID 2010);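 note: cells exposed to compound for about 90 hours before reading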", "type": "functional"}, "[3]": {"target": "Mothers against decapentaplegic homolog 3 (Homo sapiens, UniProt P84022)", "sequence (P84022 whole entry)": "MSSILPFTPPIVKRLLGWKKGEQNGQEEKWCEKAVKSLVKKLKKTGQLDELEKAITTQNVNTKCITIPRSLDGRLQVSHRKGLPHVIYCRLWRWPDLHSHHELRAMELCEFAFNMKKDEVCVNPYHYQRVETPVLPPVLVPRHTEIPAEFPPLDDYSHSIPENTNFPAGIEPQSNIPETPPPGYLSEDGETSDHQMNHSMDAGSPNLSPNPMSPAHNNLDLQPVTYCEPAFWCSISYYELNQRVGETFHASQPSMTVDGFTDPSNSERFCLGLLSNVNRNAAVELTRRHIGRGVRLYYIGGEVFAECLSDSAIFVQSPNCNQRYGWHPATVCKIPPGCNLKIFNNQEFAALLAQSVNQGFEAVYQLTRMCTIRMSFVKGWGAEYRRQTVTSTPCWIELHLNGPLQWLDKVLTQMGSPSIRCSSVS", "assay": "SMAD3 transcription factor inhibitors, dose response (AID 715)", "type": "functional"}, "[4]": {"target": "Protein-tyrosine kinase 2-beta (Homo sapiens, UniProt Q14289)"}, "BJ [5]": {"system": "BJ", "assay": "cells", "type": "functional, cell-based", "conditions": "Homo sapiens"}, "BJ [6]": {"system": "BJ", "assay": "cytotoxicity toward Ras-transformed BJeLR fibroblasts, dose response, cell-based, alamar blue fluorescence, cherrypicked samples (AID 2631);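 note: confirmatory dose-response assay in RAS-dependent BJ fibroblasts engineered with TERT, LT and ST, with cytotoxicity read by fluorescence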", "type": "functional", "conditions": "Homo sapiens"}, "Insulin-degrading enzyme": {"target": "T1, Insulin-degrading enzyme (Homo sapiens, UniProt P14735)", "T1 sequence (P14735 whole entry)": "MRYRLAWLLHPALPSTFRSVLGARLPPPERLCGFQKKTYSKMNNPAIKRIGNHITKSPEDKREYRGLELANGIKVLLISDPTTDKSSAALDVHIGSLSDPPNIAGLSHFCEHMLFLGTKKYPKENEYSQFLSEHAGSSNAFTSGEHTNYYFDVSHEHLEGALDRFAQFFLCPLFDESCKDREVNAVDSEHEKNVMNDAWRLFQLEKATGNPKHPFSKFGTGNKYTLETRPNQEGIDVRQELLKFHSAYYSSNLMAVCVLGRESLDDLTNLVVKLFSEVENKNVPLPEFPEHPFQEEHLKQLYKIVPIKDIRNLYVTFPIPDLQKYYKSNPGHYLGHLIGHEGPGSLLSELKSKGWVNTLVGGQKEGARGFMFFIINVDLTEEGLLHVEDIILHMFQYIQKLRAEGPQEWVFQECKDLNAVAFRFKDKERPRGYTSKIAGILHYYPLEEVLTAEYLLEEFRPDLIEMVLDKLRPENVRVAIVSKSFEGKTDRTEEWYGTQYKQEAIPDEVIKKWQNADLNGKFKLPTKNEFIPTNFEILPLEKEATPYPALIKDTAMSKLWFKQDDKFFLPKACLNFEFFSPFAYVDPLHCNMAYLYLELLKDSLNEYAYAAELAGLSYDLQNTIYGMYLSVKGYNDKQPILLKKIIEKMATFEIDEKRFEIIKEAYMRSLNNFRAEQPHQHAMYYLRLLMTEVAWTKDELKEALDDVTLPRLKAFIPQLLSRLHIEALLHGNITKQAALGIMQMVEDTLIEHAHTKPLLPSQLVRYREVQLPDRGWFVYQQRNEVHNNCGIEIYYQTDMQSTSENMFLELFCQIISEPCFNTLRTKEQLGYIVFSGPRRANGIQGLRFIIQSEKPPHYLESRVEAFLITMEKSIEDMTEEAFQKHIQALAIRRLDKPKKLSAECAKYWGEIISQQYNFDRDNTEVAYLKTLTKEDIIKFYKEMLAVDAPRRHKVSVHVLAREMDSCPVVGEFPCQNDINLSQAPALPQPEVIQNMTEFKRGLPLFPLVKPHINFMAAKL", "assay": "activators of endogenous IDE in HEK cells, dose response, cell-based, fluorescence polarization (AID 588439)", "type": "functional"}, "[7]": {"target": "T2, Long-chain-fatty-acid--AMP ligase FadD28 (Mycobacterium tuberculosis, UniProt P9WQ59)", "T2 sequence (P9WQ59 whole entry)": "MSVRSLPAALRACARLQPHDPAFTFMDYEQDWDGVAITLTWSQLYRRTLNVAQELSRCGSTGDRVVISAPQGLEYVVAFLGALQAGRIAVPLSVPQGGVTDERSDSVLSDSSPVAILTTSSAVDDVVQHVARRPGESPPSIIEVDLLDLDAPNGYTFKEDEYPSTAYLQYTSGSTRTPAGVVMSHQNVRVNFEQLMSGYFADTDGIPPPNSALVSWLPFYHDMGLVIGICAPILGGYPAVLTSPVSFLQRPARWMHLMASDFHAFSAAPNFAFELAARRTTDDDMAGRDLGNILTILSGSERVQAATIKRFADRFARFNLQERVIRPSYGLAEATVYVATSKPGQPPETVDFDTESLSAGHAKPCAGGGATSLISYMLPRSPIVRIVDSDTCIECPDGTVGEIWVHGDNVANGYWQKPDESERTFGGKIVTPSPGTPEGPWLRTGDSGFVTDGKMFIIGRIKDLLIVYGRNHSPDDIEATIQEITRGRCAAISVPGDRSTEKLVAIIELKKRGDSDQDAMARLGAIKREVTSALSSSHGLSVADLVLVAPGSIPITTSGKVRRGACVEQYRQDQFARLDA", "assay": "Fluorescence polarization aasay to screen for inhibitors that compete for the binding of FadD28 to a bisubstrate Measured in Biochemical System Using Plate Reader - 2147-01_Inhibitor_Dose_CherryPick_Activity.", "type": "functional, Mycobacterium tuberculosis H37Rv"}, "[8]": {"target": "T3, Ubiquitin-conjugating enzyme E2 N (Homo sapiens, UniProt P61088)", "T3 sequence (P61088 whole entry)": "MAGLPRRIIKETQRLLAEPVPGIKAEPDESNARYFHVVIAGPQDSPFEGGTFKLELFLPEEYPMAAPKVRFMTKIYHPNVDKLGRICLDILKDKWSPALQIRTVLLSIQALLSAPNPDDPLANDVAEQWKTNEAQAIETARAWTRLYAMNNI", "type": "functional"}, "[9]": {"target": "Ribosomal protein S6 kinase alpha-3 (Homo sapiens, UniProt P51812)", "sequence (P51812 whole entry)": "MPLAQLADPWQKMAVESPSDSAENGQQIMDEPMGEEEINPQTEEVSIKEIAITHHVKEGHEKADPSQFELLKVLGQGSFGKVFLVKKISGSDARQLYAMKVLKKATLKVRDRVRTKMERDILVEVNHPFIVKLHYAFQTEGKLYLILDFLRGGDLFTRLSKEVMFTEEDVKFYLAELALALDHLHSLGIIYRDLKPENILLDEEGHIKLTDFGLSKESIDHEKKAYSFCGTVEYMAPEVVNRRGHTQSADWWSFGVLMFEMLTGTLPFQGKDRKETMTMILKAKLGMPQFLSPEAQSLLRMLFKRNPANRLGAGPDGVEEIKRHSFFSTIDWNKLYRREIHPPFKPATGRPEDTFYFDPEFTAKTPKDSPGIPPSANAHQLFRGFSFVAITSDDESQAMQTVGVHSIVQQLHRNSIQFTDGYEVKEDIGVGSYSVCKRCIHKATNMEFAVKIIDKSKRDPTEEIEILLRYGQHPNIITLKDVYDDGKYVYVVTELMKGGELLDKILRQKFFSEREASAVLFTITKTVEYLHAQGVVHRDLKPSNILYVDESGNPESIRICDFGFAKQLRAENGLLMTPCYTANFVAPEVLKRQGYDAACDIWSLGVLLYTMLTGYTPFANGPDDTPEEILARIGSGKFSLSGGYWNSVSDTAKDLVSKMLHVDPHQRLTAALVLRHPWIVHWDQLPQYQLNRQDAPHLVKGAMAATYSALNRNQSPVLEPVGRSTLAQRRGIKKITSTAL", "type": "functional"}, "[10]": {"target": "Serine/threonine-protein kinase 17A (Homo sapiens, UniProt Q9UEE5)", "sequence (Q9UEE5 whole entry)": "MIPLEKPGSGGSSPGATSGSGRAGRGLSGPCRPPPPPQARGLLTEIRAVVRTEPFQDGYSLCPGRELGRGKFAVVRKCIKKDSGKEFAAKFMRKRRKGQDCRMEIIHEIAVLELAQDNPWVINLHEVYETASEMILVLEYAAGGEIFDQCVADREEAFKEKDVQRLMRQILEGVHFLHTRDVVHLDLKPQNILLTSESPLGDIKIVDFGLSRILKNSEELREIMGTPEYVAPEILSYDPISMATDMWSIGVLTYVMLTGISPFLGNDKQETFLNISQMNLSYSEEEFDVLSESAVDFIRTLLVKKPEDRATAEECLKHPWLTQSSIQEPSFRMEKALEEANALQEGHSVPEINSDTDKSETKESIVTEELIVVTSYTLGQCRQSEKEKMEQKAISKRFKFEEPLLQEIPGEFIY", "type": "functional"}, "[11]": {"target": "Cell division cycle 7-related protein kinase (Homo sapiens, UniProt O00311)", "sequence (O00311 whole entry)": "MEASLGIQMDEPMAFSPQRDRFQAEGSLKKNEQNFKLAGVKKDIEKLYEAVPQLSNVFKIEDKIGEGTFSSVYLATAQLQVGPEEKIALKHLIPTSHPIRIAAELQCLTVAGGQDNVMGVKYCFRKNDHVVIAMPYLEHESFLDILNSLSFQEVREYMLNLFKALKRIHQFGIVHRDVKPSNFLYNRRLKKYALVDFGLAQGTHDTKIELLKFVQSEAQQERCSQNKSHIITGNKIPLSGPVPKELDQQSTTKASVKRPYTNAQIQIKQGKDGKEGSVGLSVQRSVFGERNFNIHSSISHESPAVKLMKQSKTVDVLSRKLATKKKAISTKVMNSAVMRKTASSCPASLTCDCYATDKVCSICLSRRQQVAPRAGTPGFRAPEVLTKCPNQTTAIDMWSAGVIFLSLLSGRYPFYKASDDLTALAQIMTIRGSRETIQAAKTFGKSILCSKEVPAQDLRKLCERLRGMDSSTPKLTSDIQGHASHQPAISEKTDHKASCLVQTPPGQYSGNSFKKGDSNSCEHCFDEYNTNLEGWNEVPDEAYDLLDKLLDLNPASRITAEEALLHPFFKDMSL", "type": "functional"}, "[12]": {"target": "G protein-coupled receptor kinase 5 (Homo sapiens, UniProt P34947)", "sequence (P34947 whole entry)": "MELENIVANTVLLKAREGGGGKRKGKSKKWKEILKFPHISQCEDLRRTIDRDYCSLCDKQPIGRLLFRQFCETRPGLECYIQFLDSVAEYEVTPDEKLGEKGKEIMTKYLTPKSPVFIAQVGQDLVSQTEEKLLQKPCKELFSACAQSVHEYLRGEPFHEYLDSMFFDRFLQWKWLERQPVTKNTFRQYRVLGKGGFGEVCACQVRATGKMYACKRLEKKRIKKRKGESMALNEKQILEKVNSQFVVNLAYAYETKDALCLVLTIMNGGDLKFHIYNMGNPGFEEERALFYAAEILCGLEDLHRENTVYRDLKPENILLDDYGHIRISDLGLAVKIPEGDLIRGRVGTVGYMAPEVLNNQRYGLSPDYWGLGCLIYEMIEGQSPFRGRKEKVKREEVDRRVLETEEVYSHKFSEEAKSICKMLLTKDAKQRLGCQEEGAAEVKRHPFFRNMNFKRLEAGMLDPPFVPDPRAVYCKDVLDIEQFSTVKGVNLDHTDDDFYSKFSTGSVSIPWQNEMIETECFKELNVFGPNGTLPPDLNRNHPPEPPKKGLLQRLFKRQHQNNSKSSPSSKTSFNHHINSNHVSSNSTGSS", "assay": "Navigating the Kinome. Panel member name: GPRK5", "type": "functional"}, "[13]": {"target": "Cyclin-dependent kinase 5 (Homo sapiens, UniProt Q00535)", "sequence (Q00535 whole entry)": "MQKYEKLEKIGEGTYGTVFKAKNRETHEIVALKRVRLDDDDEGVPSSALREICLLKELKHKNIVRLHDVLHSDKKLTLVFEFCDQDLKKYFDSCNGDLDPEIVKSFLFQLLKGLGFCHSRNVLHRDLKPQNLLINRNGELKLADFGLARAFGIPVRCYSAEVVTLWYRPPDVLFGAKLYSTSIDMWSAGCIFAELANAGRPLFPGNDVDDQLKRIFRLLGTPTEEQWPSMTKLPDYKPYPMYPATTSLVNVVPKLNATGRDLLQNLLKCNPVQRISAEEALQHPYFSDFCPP", "type": "functional"}, "[14]": {"target": "Platelet-derived growth factor receptor beta (Homo sapiens, UniProt P09619)", "sequence (P09619 whole entry)": "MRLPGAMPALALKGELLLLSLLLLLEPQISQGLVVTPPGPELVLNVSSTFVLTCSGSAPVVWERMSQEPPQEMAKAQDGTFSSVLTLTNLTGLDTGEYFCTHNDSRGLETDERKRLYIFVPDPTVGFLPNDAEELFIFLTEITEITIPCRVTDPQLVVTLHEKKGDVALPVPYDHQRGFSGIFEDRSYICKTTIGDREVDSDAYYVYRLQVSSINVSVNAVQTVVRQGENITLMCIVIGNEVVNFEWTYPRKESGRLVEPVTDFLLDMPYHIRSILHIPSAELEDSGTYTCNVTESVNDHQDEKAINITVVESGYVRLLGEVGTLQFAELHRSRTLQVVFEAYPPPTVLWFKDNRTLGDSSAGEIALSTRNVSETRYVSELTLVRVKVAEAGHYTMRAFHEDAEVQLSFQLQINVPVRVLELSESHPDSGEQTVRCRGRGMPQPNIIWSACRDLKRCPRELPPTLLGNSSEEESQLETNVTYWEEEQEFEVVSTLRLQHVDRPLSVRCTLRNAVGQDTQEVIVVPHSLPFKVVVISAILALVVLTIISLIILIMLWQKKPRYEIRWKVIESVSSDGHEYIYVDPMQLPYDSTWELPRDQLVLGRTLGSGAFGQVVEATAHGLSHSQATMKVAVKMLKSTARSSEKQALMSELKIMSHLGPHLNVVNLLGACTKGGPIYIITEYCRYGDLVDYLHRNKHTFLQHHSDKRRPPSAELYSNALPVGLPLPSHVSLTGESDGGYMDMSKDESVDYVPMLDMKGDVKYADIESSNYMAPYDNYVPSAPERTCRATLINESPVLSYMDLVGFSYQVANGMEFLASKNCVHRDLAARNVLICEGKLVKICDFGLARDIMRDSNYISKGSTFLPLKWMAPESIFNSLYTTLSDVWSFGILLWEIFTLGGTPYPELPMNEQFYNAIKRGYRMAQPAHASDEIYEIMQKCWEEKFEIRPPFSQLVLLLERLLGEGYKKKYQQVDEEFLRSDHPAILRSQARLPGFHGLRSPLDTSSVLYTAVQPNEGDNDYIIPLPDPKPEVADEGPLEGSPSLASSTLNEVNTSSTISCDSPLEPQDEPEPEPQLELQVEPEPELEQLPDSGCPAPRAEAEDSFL", "type": "functional"}, "LIM domain kinase 1": {"target": "LIM domain kinase 1 (Homo sapiens, UniProt P53667)", "sequence (P53667 whole entry, the tested form may be a part)": "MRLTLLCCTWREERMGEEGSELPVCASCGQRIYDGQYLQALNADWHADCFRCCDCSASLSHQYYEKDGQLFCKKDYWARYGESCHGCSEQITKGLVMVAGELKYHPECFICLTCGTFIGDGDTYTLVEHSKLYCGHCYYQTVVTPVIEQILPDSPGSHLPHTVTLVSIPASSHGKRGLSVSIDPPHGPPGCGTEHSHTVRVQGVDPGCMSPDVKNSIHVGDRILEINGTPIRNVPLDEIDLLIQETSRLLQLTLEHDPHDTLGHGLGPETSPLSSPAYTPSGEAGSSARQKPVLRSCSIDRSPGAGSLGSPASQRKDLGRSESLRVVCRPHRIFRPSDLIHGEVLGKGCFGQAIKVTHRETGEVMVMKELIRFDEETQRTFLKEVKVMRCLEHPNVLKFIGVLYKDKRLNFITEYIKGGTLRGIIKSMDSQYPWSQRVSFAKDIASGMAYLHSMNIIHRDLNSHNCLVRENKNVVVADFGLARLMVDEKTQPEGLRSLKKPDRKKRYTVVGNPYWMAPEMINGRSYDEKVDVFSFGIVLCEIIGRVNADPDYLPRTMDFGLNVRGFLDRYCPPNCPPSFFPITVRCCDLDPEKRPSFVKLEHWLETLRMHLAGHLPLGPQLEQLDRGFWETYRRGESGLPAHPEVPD", "assay": "Navigating the Kinome. Panel member name: LIMK1", "type": "functional"}, "[15]": {"target": "T4, Sentrin-specific protease 8 (Homo sapiens, UniProt Q96LD8)", "T4 sequence (Q96LD8 whole entry)": "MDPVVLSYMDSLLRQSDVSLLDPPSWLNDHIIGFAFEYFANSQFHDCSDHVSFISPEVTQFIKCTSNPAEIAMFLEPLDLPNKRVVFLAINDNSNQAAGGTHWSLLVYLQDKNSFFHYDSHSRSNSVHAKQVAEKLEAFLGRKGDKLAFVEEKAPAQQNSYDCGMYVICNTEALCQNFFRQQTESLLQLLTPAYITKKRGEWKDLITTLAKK", "type": "functional"}}, "note": "Calls of active or inactive are those of the source.", "data": [{"smiles": "CC(C)CC(=O)NC(c1cccs1)c1ccc2cccnc2c1O", "note": "(stereo not given)", "values": [{"measurement": "EC50", "setting": "[1]", "value": "0.489 µM (active)"}, {"measurement": "EC50", "setting": "[2]", "value": "1.48 µM (active)"}]}, {"smiles": "CCOC(=O)c1ccc(NC2=CC(=O)C(=O)c3ccccc32)cc1", "values": [{"measurement": "IC50", "setting": "[3]", "value": "2.81 µM (active)"}, {"measurement": "IC50", "setting": "[4]", "value": "> 69.5 µM (not active)"}]}, {"smiles": "OC(CNCCC1C=Nc2ccccc21)Cn1c2ccc(Cl)cc2c2cc(Cl)ccc21", "note": "(stereo not given)", "values": [{"measurement": "EC50", "setting": "BJ [5]", "value": "> 75 µM (not active)"}, {"measurement": "EC50", "setting": "BJ [6]", "value": "4.36 µM (inconclusive)"}, {"measurement": "EC50", "setting": "Insulin-degrading enzyme", "value": "> 54.7 µM (inactive)"}]}, {"smiles": "CCCCCCCCCCCCCCCC[N+](C)(C)C", "values": [{"measurement": "AC50", "setting": "[7]", "value": "12.7 µM (active)"}, {"measurement": "IC50", "setting": "[8]", "value": "> 20 µM (inactive)"}]}, {"smiles": "NC1CCC(Nc2nc(Cl)cc(-c3c[nH]c4ncccc34)n2)CC1", "note": "(stereo not given)", "values": [{"measurement": "Ki", "setting": "[9]", "value": "0.0126 µM (active)"}, {"measurement": "pKi", "setting": "[9]", "value": 7.9}, {"measurement": "Ki", "setting": "[10]", "value": "0.0316 µM (active)"}, {"measurement": "pKi", "setting": "[10]", "value": 7.5}, {"measurement": "Ki", "setting": "[11]", "value": "0.000316 µM (active)"}, {"measurement": "pKi", "setting": "[11]", "value": 9.5}]}, {"smiles": "O=C(O)C1CN(Cc2ccc(OCc3ccccc3)cc2Cl)C1", "values": [{"measurement": "Ki", "setting": "[12]", "value": "> 3.98 µM (inactive)"}, {"measurement": "Ki", "setting": "[13]", "value": "> 3.16 µM (inactive)"}, {"measurement": "Ki", "setting": "[14]", "value": "> 2 µM (inactive)"}, {"measurement": "Ki", "setting": "LIM domain kinase 1", "value": "> 3.16 µM (inactive)"}]}, {"smiles": "COc1ccc(C(=O)c2nccc3cc(OC)c(OC)cc23)cc1OC", "values": [{"measurement": "IC50", "setting": "[15]", "value": "2.47 µM (active)"}]}]}
